Experimental data as given in patent US8901116B2, “Method for treating pain, anxiety or depression using carbamoyloxy alkanoyl piperazine compound” (SK Biopharmaceuticals Co., Ltd., priority 2007, dated 2014).

How the values were obtained:
Type in all cases: in vivo
male ICR mouse [1] = assay: Acetic acid-induced writhing test in mouse; details: po, p.o, acetic acid i.p. 1 hour after dosing, writhing counted for 10 minutes, read-out: Writhing Test Suppression of pain response
Procedure: An acetic acid-induced writhing test is one of models for measuring an analgesic effect of drugs. A test material dissolved in a suitable vehicle was orally administered to a male ICR mouse weighing 30 to 35 g at an amount of 10 mg/kg. After 1 hour of the oral administration, […] of an aqueous 0.8% acetic acid solution was intraperitoneally injected into the male ICR mouse to induce the abdominal pain of the male ICR mouse. Right after the administration of acetic acid, the male ICR mouse was put into an empty cage, and the number of writhing behaviors of the mice was counted for 10 minutes. The term “writhing” represents a reflex action in which the mouse overtly extends its abdomen by stretching its hind legs due to the abdominal pain. The analgesic effect of the test material is represented by the ‘suppression of pain response’ {[(Writhing number of vehicle-administered group−Writhing number of Test material—administered group)/(Writhing number of Solvent-administered group)]×100%}.

male ICR mouse [2] = assay: Hot plate test in mouse; details: po, p.o, 1 hour after dosing, hot plate 55° C., read-out: Hot Plate Test Increase in latency of avoidance response
Procedure: A hot plate test is one of representative models for measuring an analgesic effect of drugs. A test material dissolved in a suitable vehicle was orally administered to a male ICR mouse weighing 25 to 30 g at an amount of 30 mg/kg. After 1 hour of the oral administration, the mouse was put on a hot plate (55° C.). A latency was recorded from the time right after a mouse is put on a hot plate to the time when avoidance responses (flinching, licking, jumping, etc.) to pain are observed from forefeet or rear legs of the mouse. The analgesic effect of the test material is represented by the ‘Increase in latency of avoidance response’ {[(Latency of avoidance response to pain of Test material-administered group−Latency of avoidance response to pain of vehicle-administered group)/(Latency of avoidance response to pain of Solvent-administered group)]×100%}.

male ICR mouse [3] = assay: Elevated plus maze (EPM) test in mouse; details: po, p.o, 1 hour after dosing, 5 minutes observation, read-out: Elevated Plus Maze Change index in Open-Arm Time
From the text: Elevated plus maze (EPM) is one of representative models that examine an anti-anxiety activity of a test material. Equipment used for an EPM test has a crossroad shape raised in a high position off the ground, and is configured in such a cliff shape that both sides of one road are protected with high walls and the other road is free from the wall. Among them, the road in the cliff shape is referred to as an ‘open arm,’ and the road protected by the walls is referred to as a ‘close arm.’ In this case, a level of the anxiety of a mouse may be measured by determining in which arm the mouse stays longer. In general, the mouse stays longer in the close arm than the open arm, but a mouse treated with a medicine showing an anti-anxiety effect stays relatively longer in the open arm. A test material dissolved in a suitable vehicle was orally administered to a male ICR mouse weighing 20 to 25 g at an amount of 10 mg/kg. After 1 hour of the oral administration, the mouse was put on the center of an EPM equipment to measure how long the mouse stays in the open arm within a time range of 5 minutes. The anti-anxiety effect of the test material is represented by the ‘Change index in Open-Arm Time’ {[(open arm duration in test material-administered group−open arm duration in vehicle-administered group)/(open arm duration in vehicle administered group)]×100%}.

male ICR mouse [4] = assay: Head twitch potentiation induced by 5-HTP (5-HTP potentiation test) in mouse; details: po, 0.5 h, p.o, 5-HTP 80 mg/kg + Carbidopa 25 mg/kg i.p. 30 minutes after dosing, head twitches counted for 2 minutes, negative = 5-HT2A antagonist, read-out: 5-HTP Potentiation Increase rate in Head Twitch No.
Procedure: When 5-hydroxy-L-tryptophan (5-HTP) is administered into a mouse, a head twitch phenomenon is observed since serotonin is increasingly secreted in the mouse. […] By using this principle, it is possible to search an effect of the representative antidepressant agent. A test material dissolved in a suitable vehicle was orally administered to a male ICR mouse weighing 20 to 25 g at an amount of 30 mg/kg. After 30 minutes of the oral administration, 5-HTP (80 mg/kg) and 5-HTP peripheral decarbozylase inhibitor ‘Carbidopa’ (25 mg/kg) were intraperitoneally administered to the mouse. After 30 minutes of the intraperitoneal administration, the mouse was put into an observation cage, and head twitches of the mouse were counted for 2 minutes. The anti-depression effect of the test material is represented by the ‘Increase rate in Head Twitch No.’ {[(Head Twitch No. of Test material-administered group−Head Twitch No. of vehicle-administered group)/(Head Twitch No. of vehicle-administered group)]×100%}. […] In addition to the selective serotonin reuptake inhibitor (SSRI) that has been widely used as an antidepressant agent in the clinical fields, it was tested that 5-HT2A antagonists such as nefazodone and trazodone also have an antidepressant effect.

| Compound | inhibition in vivo at 10 mg/kg (male ICR mouse [1]) [%] | change in vivo at 30 mg/kg (male ICR mouse [2]) [%] | change in vivo at 10 mg/kg (male ICR mouse [3]) [%] | change in vivo at 30 mg/kg (male ICR mouse [4]) [%] |
| --- | --- | --- | --- | --- |
| COc1ccc(N2CCN(C(=O)CC(OC(N)=O)c3ccc(F)cc3)CC2)cc1OC (centres unmarked) [Example 7, carbamic acid 3-[4-(3,4-dimethoxy-phenyl)-piperazin-1-yl]-1-(4-fluoro-phenyl)-3-oxo-propyl ester] | 40.9 | 14.7 |  |  |
| NC(=O)O[C@H](CC(=O)N1CCN(c2ccc(Cl)c(Cl)c2)CC1)c1ccccc1 [Example 68, (R)-carbamic acid 3-[4-(3,4-dichloro-phenyl)-piperazin-1-yl]-3-oxo-1-phenyl-propyl ester] | 51 | 15.7 | 1.5 | -28.6 |
| Cc1cccc(C(CC(=O)N2CCN(c3ccccc3)CC2)OC(N)=O)c1 (centres unmarked) [Example 50, carbamic acid 1-(3-methyl-phenyl)-3-oxo-3-(4-phenyl-piperazin-1-yl)-propyl ester] | 15 | 31.3 | 65.4 | -21.3 |
| NC(=O)OC(CC(=O)N1CCN(c2ccccc2)CC1)c1ccc(Cl)cc1Cl (centres unmarked) [Example 56, carbamic acid 1-(2,4-dichloro-phenyl)-3-oxo-3-(4-phenyl-piperazin-1-yl)-propyl ester] | 23.3 | 11.8 | 23.9 | 40 |
| NC(=O)OC(CC(=O)N1CCN(c2ccccc2F)CC1)c1ccccc1 (centres unmarked) [Example 29, carbamic acid 3-[4-(2-fluoro-phenyl)-piperazin-1-yl]-3-oxo-1-phenyl-propyl ester] | 34.5 | 0 | 92.3 | 14.3 |
| NC(=O)OC(CC(=O)N1CCN(c2ccccc2)CC1)c1cc(F)ccc1F (centres unmarked) [Example 57, carbamic acid 1-(2,5-difluoro-phenyl)-3-oxo-3-(4-phenyl-piperazin-1-yl)-propyl ester] | 34.5 | 11.2 | 88.8 | 27.9 |
| NC(=O)OC(CC(=O)N1CCN(c2ccc(F)c(F)c2)CC1)c1ccccc1 (centres unmarked) [Example 33, carbamic acid 3-[4-(3,4-difluoro-phenyl)-piperazin-1-yl]-3-oxo-1-phenyl-propyl ester] | 74.5 | 43.6 |  |  |
| NC(=O)OC(CC(=O)N1CCN(c2ncccn2)CC1)c1ccccc1 (centres unmarked) [Example 25, carbamic acid 3-oxo-1-phenyl-3-(4-pyrimidin-2-yl-piperazin-1-yl)-propyl ester] | 59.3 | 15.9 |  |  |
| NC(=O)OC(CC(=O)N1CCN(c2ncc(Cl)cc2Cl)CC1)c1ccccc1 (centres unmarked) [Example 26, carbamic acid 3-[4-(3,5-dichloro-pyridin-2-yl)-piperazin-1-yl]-3-oxo-1-phenyl-propyl ester] | 30.8 | 20.6 |  |  |
| COc1ccc(N2CCN(C(=O)CCC(OC(N)=O)c3ccccc3)CC2)cc1OC (centres unmarked) [Example 41, carbamic acid 4-[4-(3,4-dimethoxy-phenyl)-piperazin-1-yl]-4-oxo-1-phenyl-butyl ester] | 31.2 | 28.7 |  |  |
| COc1ccc(N2CCN(C(=O)CC(OC(N)=O)c3ccccc3)CC2)c(OC)c1 (centres unmarked) [Example 9, carbamic acid 3-[4-(2,4-dimethoxy-phenyl)-piperazin-1-yl]-3-oxo-1-phenyl-propyl ester] | 33.1 | 16.4 |  |  |
| COc1ccc(N2CCN(C(=O)CC(OC(N)=O)c3ccc(Cl)cc3)CC2)cc1OC (centres unmarked) [Example 6, carbamic acid 1-(4-chloro-phenyl)-3-[4-(3,4-dimethoxy-phenyl)-piperazin-1-yl]-3-oxo-propyl ester] | 44.8 | 11 |  |  |
| COc1ccc(N2CCN(C(=O)C[C@H](OC(N)=O)c3ccccc3)CC2)cc1OC [Example 65, (S)-carbamic acid 3-[4-(3,4-dimethoxy-phenyl)-piperazin-1-yl]-3-oxo-1-phenyl-propyl ester] |  | 38.6 | 74.7 | 91.6 |
| NC(=O)OC(CC(=O)N1CCN(c2ccc(Cl)cc2)CC1)c1ccccc1 (centres unmarked) [Example 38, carbamic acid 3-[4-(4-chloro-phenyl)-piperazin-1-yl]-3-oxo-1-phenyl-propyl ester] | 66.1 | 38.3 |  |  |
| COc1ccc(N2CCN(C(=O)C[C@H](OC(N)=O)c3ccccc3)CC2)cc1 [Example 69, (S)-carbamic acid 3-[4-(4-methoxy-phenyl)-piperazin-1-yl]-3-oxo-1-phenyl-propyl ester] |  | 22.9 | 57.3 | -14.3 |
| COc1ccc(N2CCN(C(=O)CC(OC(N)=O)c3ccccc3)CC2)cc1 (centres unmarked) [Example 2, carbamic acid 3-[4-(4-methoxy-phenyl)-piperazin-1-yl]-3-oxo-1-phenyl-propyl ester] | 54.6 | 37.5 |  |  |
| COc1ccc(N2CCN(C(=O)CC(OC(N)=O)c3ccc(C)cc3)CC2)cc1OC (centres unmarked) [Example 8, carbamic acid 3-[4-(3,4-dimethoxy-phenyl)-piperazin-1-yl]-3-oxo-1-p-tolyl-propyl ester] | 30.1 | 10.9 |  |  |
| COc1ccc(N2CCN(C(=O)CC(OC(N)=O)c3ccccc3)CC2)cc1OC (centres unmarked) [Example 5, carbamic acid 3-[4-(3,4-dimethoxy-phenyl)-piperazin-1-yl]-3-oxo-1-phenyl-propyl ester] | 79.7 | 39.2 |  |  |
| COc1ccc(C(CC(=O)N2CCN(c3ccccc3)CC2)OC(N)=O)cc1 (centres unmarked) [Example 15, carbamic acid 1-(4-methoxy-phenyl)-3-oxo-3-(4-phenyl-piperazin-1-yl)-propyl ester] | 35.1 | 17.9 |  |  |
| NC(=O)OC(CC(=O)N1CCN(c2ccccc2)CC1)c1ccccc1[N+](=O)[O-] (centres unmarked) [Example 42, carbamic acid 1-(2-nitro-phenyl)-3-oxo-3-(4-phenyl-piperazin-1-yl)-propyl ester] |  |  | 27.3 | 33.3 |
| NC(=O)OC(CC(=O)N1CCN(c2ccc3c(c2)OCO3)CC1)c1ccccc1 (centres unmarked) [Example 14, carbamic acid 3-(4-benzo[1,3]dioxol-5-yl-piperazin-1-yl)-3-oxo-1-phenyl-propyl ester] | 64 | 17.8 |  |  |
| NC(=O)OC(CC(=O)N1CCN(c2ccccn2)CC1)c1ccccc1 (centres unmarked) [Example 24, carbamic acid 3-oxo-1-phenyl-3-(4-pyridin-2-yl-piperazin-1-yl)-propyl ester] | 61.2 | 28.1 |  |  |
